One assay concerns HBV. As to the kind of experiment: HBV-DNA Antiviral Assay Using HepG2.117 Cells (intracellular HBV DNA by qPCR). It counts as cell-based, hepatitis B virus (genotype D). To be noted: HBV DNA inhibition, HepG2.117 cells, intracellular HBV DNA by qPCR (Table 4); read-out: EC50. On the procedure: The following assay procedure describes the HBV antiviral assay, using HepG2.117 cells, which carry a stably integrated genotype D HBV genome under the control of a Tet-off promoter, and intracellular HBV DNA quantification as endpoint. Cell viability is assessed in parallel by measuring the intracellular ATP content using ATPlite (Perkin Elmer).
On day 0, HepG2.117 cells (which are maintained in routine cell culture with doxycycline present in the medium at a final concentration of 1 μg/mL) were seeded in 96-well plates (white with clear bottom) at a density of 2.0×10^4 cells/well (0.1 mL/well) in medium without doxycycline to induce pgRNA transcription and subsequent formation of HBV particles. The cells were incubated at 37° C. and 5% CO2.
On day 1, medium was removed from each well, the test articles were diluted in culture medium without doxcycyline and 100 μL was added to cell culture wells (9 concentrations, 4-fold dilution). For each plate, 6 untreated (merely DMSO) wells were included. The final concentration of DMSO in the culture medium was 2%. Each plate was prepared in duplicate (one for HBV DNA extraction, one for ATPlite measurement). The cells were incubated at 37° C. and 5% CO2 for 3 days.
On day 4, cell viability was assessed using ATPlite and cell lysates were prepared for HBV DNA extraction and subsequent quantification by qPCR.
Medium was removed from each well and 100 μL of 0.33% NP-40 in H2O was added to each well. Plates were sealed, incubated at 4° C. for 5 mins, vortexed extensively and centrifuged briefly. Next, 35 μL of lysate was added to 65 μL QuickExtract DNA Extraction Solution (Epicentre) in a PCR plate for each well. PCR plate was incubated at 65° C. for 6 mins, 98° C. for 2 mins and finally cooled to 4° C. HBV DNA was then quantified by qPCR with HBV-specific primers and probes as specified in Table 3 using the Bio-Rad SSOAdvanced Universal Probes Supermix on a CFX96 machine (Bio-Rad). The PCR cycle program consisted of 95° C. for 3 mins, followed by 40 cycles at 95° C. for 10 sec and 60° C. for 30 sec.
A DNA standard was prepared by dilution of an IDT gBlock corresponding to the amplicon with concentrations ranging from 10^2 to 10^8 copies/input (i.e. per 4 μL) and used to generate a standard curve by plotting Cq values vs. HBV DNA standard concentration. The quantity of HBV DNA in each sample was determined by interpolating from the standard curve.
Cell viability was calculated as follows: % Cell viability=(luminescence value of test sample)/(average luminescence value of 2% DMSO control)×100%. HBV DNA inhibition was calculated as follows: 100−(HBV DNA copy number of test sample)/(average HBV DNA copy number of 2% DMSO control)×100%. No normalization to entecavir was required due to the excellent dynamic window of this assay. The CC50, EC50 and EC90 values were determined by dose-response curves fitted by GraphPad Prism using “log (agonist) vs. response—Variable slope”.
For the compound “13-benzyl-4-(4-bromo-3-chloro- benzoyl)-11-methylene-4,7,9,13- tetrazatricyclo[7.5.0.0^2,7]tetradec-1- ene-8.14-dione [Example 109]”, the EC50 was 100 to 500 nM.

The same assay, now with this note: Hepatitis B virus, HepG2.117.
`C[C@@H](NC(=O)c1c2n(c(=O)n1-c1ccc(OC3CC3)cc1)C[C@H](C)N(C(=O)c1ccc(Br)c(Cl)c1)C2)c1ccccc1F` (mixture of isomers) [Example 322, (6SR)-7-(4-bromo-3-chloro-benzoyl)-2-[4-(cyclopropoxy)phenyl]-N-[(1R)-1-(2-fluorophenyl)ethyl]-6-methyl-3-oxo-6,8-dihydro-5H-imidazo[1,5-a]pyrazine-1-carboxamide] displayed an EC50 of 100 to 500 nM.
`C[C@@H]1Cn2c(c(C(=O)N[C@H](C)c3ccccc3)n(-c3ccc(OC4CC4)cc3)c2=O)CN1C(=O)c1ccc(Br)c(Cl)c1` (mixture of isomers) [Example 331, (6RS)-7-(4-bromo-3-chloro-benzoyl)-2-[4-(cyclopropoxy)phenyl]-6-methyl-3-oxo-N-[(1S)-1-phenylethyl]-6,8-dihydro-5H-imidazo[1,5-a]pyrazine-1-carboxamide] registered an EC50 of 500 to 5000 nM.
`C[C@@H](NC(=O)c1c2n(c(=O)n1-c1ccc(OC3CC3)cc1)C[C@H](C)N(C(=O)c1ccc(Br)c(Cl)c1)C2)c1ccccc1` (mixture of isomers) [Example 332, (6SR)-7-(4-bromo-3-chloro-benzoyl)-2-[4-(cyclopropoxy)phenyl]-6-methyl-3-oxo-N-[(1R)-1-phenylethyl]-6,8-dihydro-5H-imidazo[1,5-a]pyrazine-1-carboxamide] yielded an EC50 of 100 to 500 nM.
Still for that read-out and setting: next, `C[C@@H]1Cn2c(c(C(=O)N[C@H](C)c3ccccc3F)n(-c3ccc(OC4CC4)cc3)c2=O)CN1C(=O)c1ccc(Br)c(Cl)c1` (mixture of isomers) [Example 335, (6RS)-7-(4-bromo-3-chloro-benzoyl)-2-[4-(cyclopropoxy)phenyl]-N-[(1S)-1-(2-fluorophenyl)ethyl]-6-methyl-3-oxo-6,8-dihydro-5H-imidazo[1,5-a]pyrazine-1-carboxamide]: 500 to 5000 nM; `COc1ccc([C@H](C)NC(=O)c2c3n(c(=O)n2-c2ccc(OC4CC4)cc2)C[C@H](C)N(C(=O)c2ccc(Br)c(Cl)c2)C3)cc1` (mixture of isomers) [Example 436, (6SR)-7-(4-bromo-3-chloro-benzoyl)-2-[4-(cyclopropoxy)phenyl]-N-[(1S)-1-(4-methoxyphenyl)ethyl]-6-methyl-3-oxo-6,8-dihydro-5H-imidazo[1,5-a]pyrazine-1-carboxamide]: less than 100 nM.
On the same count and under the same terms, the value for `COc1ccc(-n2c(C(=O)N[C@@H]3CCc4ccccc43)c3n(c2=O)CCN(C(=O)c2ccc(Br)c(Cl)c2)C3)cc1` (racemic) [Example 75, 7-(4-bromo-3-chloro-benzoyl)-2-(4-methoxyphenyl)-3-oxo-N-[rac-(1R)-indan-1-yl]-6,8-dihydro-5H-imidazo[1,5-a]pyrazine-1-carboxamide] was 500 to 5000 nM; that for `COc1ccc(-n2c(C(=O)NC(C)C3CC3)c3n(c2=O)CCN(C(=O)c2ccc(Cl)c(Cl)c2)C3)cc1` (racemic) [Example 94, 7-(3,4-dichlorobenzoyl)-2-(4-methoxyphenyl)-3-oxo-N-[rac-(1S)-1-cyclopropylethyl]-6,8-dihydro-5H-imidazo[1,5-a]pyrazine-1-carboxamide] was greater than 5000 nM.
Same read-out and setting: next, `COc1ccc(-n2c(C(=O)N[C@H](C)C3CC3)c3n(c2=O)CCN(C(=O)c2ccc(Cl)c(Cl)c2)C3)cc1` (racemic) [Example 95, 7-(3,4-dichlorobenzoyl)-2-(4-methoxyphenyl)-3-oxo-N-[rac-(1R)-1-cyclopropylethyl]-6,8-dihydro-5H-imidazo[1,5-a]pyrazine-1-carboxamide]: greater than 5000 nM.
For `CC(C)Oc1ccc(-n2c(C(=O)NC(C)c3ccccc3)c3n(c2=O)CCN(C(=O)c2ccc(Br)c(Cl)c2)C3)cc1` (racemic) [Example 118, 7-(4-bromo-3-chloro-benzoyl)-2-(4-isopropoxyphenyl)-3-oxo-N-[rac-(1R)-1-phenylethyl]-6,8-dihydro-5H-imidazo[1,5-a]pyrazine-1-carboxamide], the EC50 is 100 to 500 nM.
For the compound `CC(C)Oc1ccc(-n2c(C(=O)N[C@@H](C)c3ccccc3)c3n(c2=O)CCN(C(=O)c2ccc(Br)c(Cl)c2)C3)cc1` (racemic) [Example 119, 7-(4-bromo-3-chloro-benzoyl)-2-(4-isopropoxyphenyl)-3-oxo-N-[rac-(1S)-1-phenylethyl]-6,8-dihydro-5H-imidazo[1,5-a]pyrazine-1-carboxamide], the EC50 is 100 to 500 nM.
Same read-out and setting: the value for `COc1ccc(-n2c(C(=O)N[C@@H](CO)c3ccccc3)c3n(c2=O)CCN(C(=O)c2ccc(Br)c(Cl)c2)C3)cc1` (racemic) [Example 144, 7-(4-bromo-3-chloro-benzoyl)-2-(4-methoxyphenyl)-3-oxo-N-[rac-(1R)-2-hydroxy-1-phenyl-ethyl]-6,8-dihydro-5H-imidazo[1,5-a]pyrazine-1-carboxamide] was 500 to 5000 nM; that for `COc1ccc(-n2c(C(=O)N[C@H](C)c3ccc(Br)cc3)c3n(c2=O)CCN(C(=O)c2ccc(Br)c(Cl)c2)C3)cc1` (racemic) [Example 145, 7-(4-bromo-3-chloro-benzoyl)-2-(4-methoxyphenyl)-3-oxo-N-[rac-(1R)-1-(4-bromophenyl)ethyl]-6,8-dihydro-5H-imidazo[1,5-a]pyrazine-1-carboxamide] was 100 to 500 nM.
With `COc1ccc(-n2c(C(=O)N[C@@H](c3ccccc3)C3CC3)c3n(c2=O)CCN(C(=O)c2ccc(Br)c(Cl)c2)C3)cc1` (racemic) [Example 149, 7-(4-bromo-3-chloro-benzoyl)-2-(4-methoxyphenyl)-3-oxo-N-[rac-(R)-cyclopropyl(phenyl)methyl]-6,8-dihydro-5H-imidazo[1,5-a]pyrazine-1-carboxamide], the EC50 was in the range of 500 to 5000 nM.
Take `COc1ccc(-n2c(C(=O)NC(c3ccccc3)C(C)C)c3n(c2=O)CCN(C(=O)c2ccc(Br)c(Cl)c2)C3)cc1` (racemic) [Example 160, 7-(4-bromo-3-chloro-benzoyl)-2-(4-methoxyphenyl)-3-oxo-N-[rac-(1S)-2-methyl-1-phenyl-propyl]-6,8-dihydro-5H-imidazo[1,5-a]pyrazine-1-carboxamide]: the EC50 was in the range of 500 to 5000 nM.
Compound `C[C@H](NC(=O)c1c2n(c(=O)n1-c1ccc(OC3CC3)cc1)CCN(C(=O)c1ccc(Br)c(Cl)c1)C2)c1ccccc1` (racemic) [Example 168, 7-(4-bromo-3-chloro-benzoy)-2-[4-(cyclopropoxy)phenyl]-3-oxo-N-[rac-(1S)-1-phenylethyl]-6,8-dihydro-5H-imidazo[1,5-a]pyrazine-1-carboxamide] had an EC50 of 100 to 500 nM.
`COc1ccc(-n2c(C(=O)NC(c3ccccc3)C3CC3)c3n(c2=O)CCN(C(=O)c2ccc(Br)c(Cl)c2)C3)cc1` (racemic) [Example 176, 7-(4-bromo-3-chloro-benzoyl)-2-(4-methoxyphenyl)-3-oxo-N-[rac-(S)-cyclopropyl(phenyl)methyl]-6,8-dihydro-5H-imidazo[1,5-a]pyrazine-1-carboxamide] came in with an EC50 of 100 to 500 nM.

The record behind these values is patent publication US11591341B2 (ALIGOS THERAPEUTICS, INC., priority 2019, dated 2023).
